Data as given in paper PMC11653257, “Organometallic Half-Sandwich Complexes of 8-Hydroxyquinoline-Derived Mannich Bases with Enhanced Solubility: Targeting Multidrug Resistant Cancer” (Inorganic Chemistry, 2024).
Read-outs that look alike come from different tables or passages of the source.

Experiments:
[1] = system: MES-SA/Dx5; assay: Cytotoxicity in double coculture, MES-SA/Dx5 eGFP; conditions: for IC50: Homo sapiens, MES-SA/Dx5, 144 h, read-out: IC50 MES-SA/Dx5; for SR = IC50 (MES-SA)/IC50 (MES-SA/Dx5): double coculture
[2] = system: MES-SA; conditions: monoculture, PrestoBlue; ref SI2; cited from earlier work
[3] = system: MES-SA; assay: Cytotoxicity in double coculture, MES-SA mCherry; conditions: Homo sapiens, MES-SA, 144 h, read-out: IC50 MES-SA
Procedure: Therefore, the novel half-sandwich complexes (1–4) and their corresponding ligands were tested against a coculture of MES-SA and MES-SA/Dx5 cells expressing the fluorescent proteins mCherry or eGFP, respectively.[62]
The tested compounds were dissolved in 50% (v/v) DMSO/PBS’ buffer to prepare 5–10 mM stock solutions, which were diluted in complete culture medium. Constitutive expression of the fluorescent proteins allowed multiplexing in cytotoxicity experiments.[62] […] Serial dilutions of the compounds were added 24 h after seeding. To address the effect of P-gp function, TQ was added at a nontoxic concentration (0.4 μM) 15 min before the test compounds. […] IC50 values and standard deviation were calculated from average pIC50 values from at least 3 independent measurements.

[4] = pH 7.4; cited from earlier work
[5] = system: MES-SA/Dx5; conditions: monoculture, ref SI2, cited from earlier work
[6] = system: A431-B1; design: method as in earlier work; conditions: monoculture, ref SI3, cited from earlier work
[7] = system: A431; design: method as in earlier work; conditions: monoculture, 72 h, PrestoBlue; ref SI3; cited from earlier work
[8] = system: MES-SA; assay: Cytotoxicity in triple coculture, MES-SA mCherry; format: cell-based, human; conditions: Homo sapiens, MES-SA/B1, MES-SA/Dx5, 144 h
Procedure: (§1) Cell lines were purchased from the American Type Culture Collection (ATCC). MES-SA/B1 is a human MDR1-transfected derivative of MES-SA, and MES-SA mCherry, MES-SA/B1 mOrange, and MES-SA/Dx5 eGFP were engineered to stably express the respective fluorescent proteins previously.[62] Cells were kept in culture medium (DMEM) supplemented with 10% fetal bovine serum, 2 mM L-glutamine, 100 units/mL penicillin, and 100 μg/mL streptomycin (Thermo Fisher). One week before use, MES-SA/Dx5 eGFP cells were treated with 0.5 μM doxorubicin to ensure ABCB1/P-gp expression.
(§2) The tested compounds were dissolved in 50% (v/v) DMSO/PBS’ buffer to prepare 5–10 mM stock solutions, which were diluted in complete culture medium. Constitutive expression of the fluorescent proteins allowed multiplexing in cytotoxicity experiments.[62] Cells were mixed before seeding in 384-well plates: in double cocultures, MES-SA mCherry and MES-SA/Dx5 eGFP cells were seeded at 1250–1250 cells/well (in total 2500 cells/well); while in triple cocultures, MES-SA mCherry, MES-SA/Dx5 eGFP and MES-SA/B1 mOrange cells were seeded at 800–800–800 cells/well (in total 2400 cells/well). Serial dilutions of the compounds were added 24 h after seeding. To address the effect of P-gp function, TQ was added at a nontoxic concentration (0.4 μM) 15 min before the test compounds. The intensity of the fluorescent proteins, which is proportional to cell mass, was measured after 144 h of incubation at the respective fluorescent channels (excitation/emission: eGFP: 485 nm/510 nm; mOrange: 545 nm/567 nm; mCherry: 585 nm/610 nm). pIC50 values were calculated by a custom program written by Judit Sessler in C#.[62] IC50 values and standard deviation were calculated from average pIC50 values from at least 3 independent measurements.

[9] = system: Colo320; assay: Cytotoxicity, Colo320; format: cell-based, human; conditions: this work
Description: (§3) Supplementary Information
(§4) (11 pictures or pasted objects on this page, not shown here)

[10] = system: Colo205; assay: Cytotoxicity, Colo205; format: cell-based; conditions: Homo sapiens, COLO 205; 72 h incubation; this work
Description: as §3, §4

[11] = system: MES-SA/Dx5; assay: Cytotoxicity in triple coculture, MES-SA/Dx5 eGFP; format: cell-based, human
Procedure: as §1, §2

| SMILES | IC50 [1] [nM] | SR = IC50 (MES-SA)/IC50 (MES-SA/Dx5) ([1]; + 0.4 μM tariquidar (TQ)) | SR = IC50 (MES-SA)/IC50 (MES-SA/Dx5) ([1]; without TQ) | IC50 [2] [nM] | IC50 [3] [nM] | log D7.4 [4] | IC50 ([5]; PrestoBlue) [nM] | SR (MES-SA / MES-SA/Dx5) ([5]; + 1 µM TQ) | SR (MES-SA / MES-SA/Dx5) [5] | IC50 ([6]; 72 h, PrestoBlue) [nM] | SR (A431 / A431-B1) [6] | IC50 [7] [nM] | IC50 [8] [nM] | IC50 ([9]; Homo sapiens, COLO 320, 72 h incubation) [nM] | SR (Colo205 / Colo320) [9] | IC50 [10] [nM] | SR Dx5 = IC50 (MES-SA)/IC50 (MES-SA/Dx5) [11] | IC50 ([11]; Homo sapiens, MES-SA/Dx5, 144 h) [nM] |
| --- | --- | --- | --- | --- | --- | --- | --- | --- | --- | --- | --- | --- | --- | --- | --- | --- | --- | --- |
| Oc1c(CN2CCCCC2)ccc2cccnc12 [PHQ, 7-(1-piperidinylmethyl)quinolin-8-ol, reference compound] | 490 | 1.8 | 7.8 | 3630 ± 580 | 3800 | +0.93 | 620 ± 30 | 0.92 | 5.85 | 2480 ± 700 | 4.09 | 10100 ± 2950 | – | – | – | – | – | – |
| COc1cccc2c1C(=O)c1c(O)c3c(c(O)c1C2=O)C[C@@](O)(C(=O)CO)C[C@@H]3O[C@H]1C[C@H](N)[C@H](O)[C@H](C)O1 [doxorubicin, reference compound] | 2620 | 1.3 | 0.01 | – | 30 | – | – | – | – | – | – | – | 30 | 190 ± 20 | 0.3 | 50 ± 10 | 0.03 | 1070 |
